Source: US20230109134A1, “PYRIDAZINONE OR PYRIDAZINE COMPOUND AND DERIVATIVE AND PHARMACEUTICAL COMPOSITION THEREOF” (Suzhou Zelgen Biopharmaceuticals Co., Ltd., priority 2019, published 2023)

Tests used:
[1] = Pharmacokinetic testing evaluation, Test Example 4 (rat plasma); type: in vivo, SD rats; conditions: for plasma exposure AUC relative to compound MGL-3196: rats, 10 mg/kg intragastric, Table 5
Experimental: (§1) Male SD rats, weighing about 220 g, were divided into 3 groups after fasting overnight, with 4 rats in each group. The first group was intragastrically administered 10 mg/kg solution of compound MGL-3196 prepared in Example 1, the second group was intragastrically administered 10 mg/kg solution of compound 2A prepared in Example 2 (The dosage is calculated by the relative content of compound MGL-3196 prepared in Example 1), and the third group was intragastrically administered 10 mg/kg solution of compound 2B prepared in Example 2 (The dosage is calculated by the relative content of compound MGL-3196 prepared in Example 1), wherein the vehicle of the solution of compound MGL-3196, compound 2A, and compound 2B is DMSO/PEG400. Blood was collected from each group at 0.5, 1.0, 2.0, 4.0, 6.0, 8.0, 12 and 24 hours after administration, and the concentration of active ingredient MGL-3196 in plasma was determined by LC/MS/MS.

[2] = Drug concentrations in liver tissue, Test Example 5; type: in vivo, ICR mice; conditions: mouse liver at 1 hr and 6 hr, 10 mg/kg intragastric
Experimental: ICR mice, weighing 20-30 g, were divided into 4 groups after fasting overnight, with 8 mice in each group. The first group was intragastrically administered 10 mg/kg solution of compound MGL-3196 prepared in Example 1, the second group was intragastrically administered 10 mg/kg solution of compound 2A prepared in Example 2 (The dosage is calculated by the relative content of compound MGL-3196 prepared in Example 1), the third group was intragastrically administered 10 mg/kg solution of compound 2B prepared in Example 2 (The dosage is calculated by the relative content of compound MGL-3196 prepared in Example 1) and the fourth group was intragastrically administered 10 mg/kg solution of compound 6B prepared in Example 6 (The dosage is calculated by the relative content of compound MGL-3196 prepared in Example 1), wherein the vehicle of the solution of compound MGL-3196, compound 2A, compound 2B and compound 6B is DMSO/PEG400. The livers of mice in each group were collected at 1 hr and 6 hr after administration, respectively, and the concentration of the active ingredient MGL-3196 in the liver was determined by LC/MS/MS.

[3] = system: Diet-Induced Obesity (DIO) C57Bl/6J mouse; experiment: Diet-induced obesity (DIO) C57Bl/6J mouse model; type: in vivo; conditions: DIO C57Bl/6J mice, 1, 3 or 10 mg/kg intragastric, 23 consecutive days
Experimental: 6-week-old C57Bl/6J mice were given a high-fat diet for 34 weeks. Mice were intragastrically administered vehicle (2% Klucel LF, 0.1% Tween 80 in water); 1, 3 or 10 mg/kg of compound 2A, compound 2B prepared in Example 2 or compound MGL-3196 prepared in Example 1 starting from day 0 (1st day of 35 weeks) respectively, 9 mice in each group, for 23 consecutive days. In a parallel study, mice were intragastrically administered vehicle (Dulbecco's phosphate buffered saline, pH adjusted to 9.0 with 1N NaOH) or 10, 30 or 100 μg/kg triiodothyronine (T3) starting from day 0 (day 1 of week 35) respectively, 9 mice in each group, for 23 consecutive days. Body weight and food intake were monitored during the study. BMD and body composition analyses were performed on day 22. At necropsy on day 23, organ weighing was performed and cholesterol and other blood biochemical parameters of blood samples were evaluated.

[4] = Pharmacokinetic testing evaluation, Test Example 3 (rat plasma); type: in vivo, SD rats
Experimental: as §1, with “1, and” for “1,”, “6B” for “2A”, “6” for “2 (The dosage is calculated by the relative content of compound MGL-3196 prepared in Example 1), and the third group was intragastrically administered 10 mg/kg solution of compound 2B prepared in Example 2”, “MGL-3196” for “MGL-3196, compound 2A,”, “6B prepared in Example 6” for “2B”

[5] = Pharmacokinetic testing evaluation, Test Example 1 (rat plasma); type: in vivo; conditions: male SD rats, intragastric 10 mg/kg (calculated based on MGL-3196), DMSO/PEG400; plasma concentration of MGL-3196; n = 4, mean
Experimental: Male SD rats, weighing about 220 g, were divided into 2 groups after fasting overnight, with 4 rats in each group. The first group was intragastrically administered 10 mg/kg solution of compound MGL-3196 prepared in Example 1, and the second group was intragastrically administered 10 mg/kg solution of compound of Example 5 of WO2009037172A1 (The dosage is calculated by the relative content of compound MGL-3196 prepared in Example 1), wherein the vehicle of the solution of compound MGL-3196 and compound of Example 5 of WO2009037172A1 is DMSO/PEG400. Blood was collected from each group at 0.5, 1.0, 2.0, 4.0, 6.0, 8.0, 12 and 24 hours after administration, and the concentration of active ingredient MGL-3196 in plasma was determined by LC/MS/MS.

[6] = Pharmacokinetic testing evaluation, Test Example 2 (rat plasma); type: in vivo; conditions: male SD rats, intragastric 10 mg/kg (calculated based on MGL-3196), DMSO/PEG400; MGL-3196 measured in plasma; n = 4, mean
Experimental: Male SD rats, weighing about 220 g, were divided into 2 groups after fasting overnight, with 4 rats in each group. The first group was intragastrically administered 10 mg/kg solution of compound MGL-3196 prepared in Example 1, and the second group was intragastrically administered 10 mg/kg solution of compound 6A prepared in Example 6 (The dosage is calculated by the relative content of compound MGL-3196 prepared in Example 1), wherein the vehicle of the solution of MGL-3196 compound and compound 6A prepared in Example 6 is DMSO/PEG400. Blood was collected from each group at 0.5, 1.0, 2.0, 4.0, 6.0, 8.0, 12 and 24 hours after administration, and the concentration of active ingredient MGL-3196 in plasma was determined by LC/MS/MS.

[7] = male SD rats, intragastric 10 mg/kg (calculated based on MGL-3196), DMSO/PEG400, MGL-3196 measured in plasma, n = 4, mean

plasma exposure AUC relative to compound MGL-3196 [1]	drug concentration in mouse liver compared to MGL-3196 [2]	plasma exposure AUC relative to compound MGL-3196 ([4]; rats, 10 mg/kg intragastric, Table 4)	T1/2 [5]	Tmax [5]	T1/2 [6]	Tmax [6]	T1/2 [4, 7]	Tmax [4, 7]	T1/2 [1, 7]	Tmax [1, 7]	SMILES	efficacy in lowering cholesterol and liver fat [3]
2.4 times	higher drug concentrations										CC(C)OC(=O)OC(C)n1nc(Oc2c(Cl)cc(-n3nc(C#N)c(=O)[nH]c3=O)cc2Cl)cc(C(C)C)c1=O (centres unmarked) [Compound 2A, 1-(3-(2,6-dichloro-4-(6-cyano-3,5-dioxo-4,5-dihydro-1,2,4-triazin-2(3H)-yl)phenoxy)-5-isopropyl-6-oxopyridazin-1(6H)-yl)ethyl Isopropyl Carbonate]	excellent efficacy in lowering cholesterol and liver fat
	higher drug concentrations	2.0 times									CC(C)OC(=O)OCOc1nnc(Oc2c(Cl)cc(-n3nc(C#N)c(=O)[nH]c3=O)cc2Cl)cc1C(C)C [Compound 6B, ((6-(2,6-dichloro-4-(6-cyano-3,5-dioxo-4,5-dihydro-1,2,4-triazin-2(3H)-yl)phenoxy)-4-isopropylpyridazin-3-yl)oxy)methyl Isopropyl Carbonate]	excellent efficacy in lowering cholesterol and liver fat
1.87 times	higher drug concentrations										CC(C)OC(=O)OC(C)Oc1nnc(Oc2c(Cl)cc(-n3nc(C#N)c(=O)[nH]c3=O)cc2Cl)cc1C(C)C (centres unmarked) [Compound 2B, 1-((6-(2,6-dichloro-4-(6-cyano-3,5-dioxo-4,5-dihydro-1,2,4-triazin-2(3H)-yl)phenoxy)-4-isopropylpyridazin-3-yl)oxy)ethyl Isopropyl Carbonate]	excellent efficacy in lowering cholesterol and liver fat
			3.35 h	2.75 h	3.54 h	5.00 h	3.55 h	6.0 h	3.73 h	4.5 h	CC(C)c1cc(Oc2c(Cl)cc(-n3nc(C#N)c(=O)[nH]c3=O)cc2Cl)n[nH]c1=O [MGL-3196, 2-(3,5-dichloro-4-((5-isopropyl-6-oxo-1,6-dihydropyridazin-3-yl)oxy)phenyl)-3,5-dioxo-2,3,4,5-tetrahydro-1,2,4-triazin-6-carbonitrile]	
